Test results published in US10947242B2, “[1,2,4]triazolo[1,5and#8208;A]pyrimidine compounds as PDE2 inhibitors” (Janssen Pharmaceutica NV, priority 2016, dated 2021).
Read-outs that look alike come from different tables or passages of the source.

Assays:
Assay type in all cases: biochemical
[1] = target: T1, Human recombinant PDE3A (hPDE3A) (Homo sapiens, UniProt Q14432); assay: In vitro assay PDE3A (SPA, 3H-cAMP hydrolysis); details: for IC50: hPDE3B pIC50, read-out: pIC50 (converted); for Emax: read-out: hPDE3B Emax, read-out: Emax;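 on all read-outs here: the method names PDE3A and the table heading PDE3B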
T1 construct: purchased Scottish Biomedical; host or cells: Sf9 insect cells
Outline: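 Human PDE3A, cloned from brain, as partially purified Sf9 lysate. Substrate 0.4 μM cAMP plus [3H]-cAMP (2.4 μCi/ml final) in 50 mM Tris pH 7.8, 8.3 mM MgCl2, 1.7 mM EGTA, 60 min at room temperature, 1% DMSO final. Hydrolysis read by SPA scintillation counting against no-enzyme blanks and DMSO controls.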

[2] = target: T2, Human recombinant PDE10A (hPDE10A) (Homo sapiens, UniProt Q9Y233); assay: In vitro assay PDE10A, human clone (SPA, 3H-cAMP hydrolysis)
T2 construct: His tag (inferred from metal chelate purification); made in house; host or cells: Sf9 insect cells (baculovirus)
Outline: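 Human recombinant PDE10A was expressed in Sf9 cells via baculovirus and incubated with compound in 50 mM Tris pH 7.8, 8.3 mM MgCl2, 1.7 mM EGTA. Substrate was 60 nM cAMP plus 0.008 μCi 3H-cAMP for 60 min at room temperature, read by SPA scintillation counting. Controls used 1% DMSO, and blanks omitted enzyme.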

[3] = target: T3, Human recombinant PDE2A (hPDE2A) (Homo sapiens, UniProt O00408); assay: In vitro assay PDE2A (SPA, 3H-cGMP hydrolysis); details: for Emax: read-out: hPDE2A Emax
T3 construct: His tag (inferred from metal chelate purification); made in house; host or cells: Sf9 insect cells (baculovirus)

[4] = human clone (h), default, read-out: hPDE10A2 Emax
[5] = human clone (h), default, read-out: hPDE10A2 pIC50 (converted)
[6] = human clone by default (no (r) mark), read-out: hPDE10A2 or rPDE10A2 Emax
[7] = human clone by default (no (r) mark), read-out: hPDE10A2 or rPDE10A2 pIC50 (converted)
[8] = read-out: hPDE2A pIC50 (converted)
[9] = human recombinant PDE2A, 10 μM cGMP substrate, read-out: hPDE2A pIC50 (converted)
[10] = hPDE2A pIC50, human recombinant PDE2A, 10 μM cGMP substrate

T1 sequence (Q14432 whole entry): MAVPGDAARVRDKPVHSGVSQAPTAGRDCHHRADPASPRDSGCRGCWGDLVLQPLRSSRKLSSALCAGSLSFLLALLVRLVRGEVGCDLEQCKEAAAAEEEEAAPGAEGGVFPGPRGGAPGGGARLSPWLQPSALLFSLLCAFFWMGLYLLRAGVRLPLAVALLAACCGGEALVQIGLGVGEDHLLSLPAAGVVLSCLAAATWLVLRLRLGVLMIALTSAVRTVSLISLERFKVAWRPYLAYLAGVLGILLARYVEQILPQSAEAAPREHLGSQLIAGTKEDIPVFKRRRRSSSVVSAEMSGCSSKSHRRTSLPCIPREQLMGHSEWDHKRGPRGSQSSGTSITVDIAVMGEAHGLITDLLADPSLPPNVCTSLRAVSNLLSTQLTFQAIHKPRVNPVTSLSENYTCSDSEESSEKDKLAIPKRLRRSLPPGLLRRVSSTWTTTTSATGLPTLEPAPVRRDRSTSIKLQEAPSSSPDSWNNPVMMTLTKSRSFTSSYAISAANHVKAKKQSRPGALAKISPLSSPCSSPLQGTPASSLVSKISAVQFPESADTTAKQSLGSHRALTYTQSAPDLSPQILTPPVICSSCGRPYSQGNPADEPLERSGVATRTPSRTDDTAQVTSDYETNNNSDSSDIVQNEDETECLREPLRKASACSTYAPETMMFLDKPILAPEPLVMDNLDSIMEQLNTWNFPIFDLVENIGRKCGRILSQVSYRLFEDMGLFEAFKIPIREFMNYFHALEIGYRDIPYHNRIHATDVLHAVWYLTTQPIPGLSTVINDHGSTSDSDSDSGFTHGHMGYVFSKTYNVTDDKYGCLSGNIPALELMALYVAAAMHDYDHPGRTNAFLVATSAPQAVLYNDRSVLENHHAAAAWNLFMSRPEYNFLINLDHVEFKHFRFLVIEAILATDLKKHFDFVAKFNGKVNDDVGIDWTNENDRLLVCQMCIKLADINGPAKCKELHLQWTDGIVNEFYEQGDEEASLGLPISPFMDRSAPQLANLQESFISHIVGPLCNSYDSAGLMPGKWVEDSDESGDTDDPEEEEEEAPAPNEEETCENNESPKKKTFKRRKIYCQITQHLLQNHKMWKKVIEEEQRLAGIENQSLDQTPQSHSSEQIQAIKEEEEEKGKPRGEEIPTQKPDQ
T2 sequence (Q9Y233 267-1055): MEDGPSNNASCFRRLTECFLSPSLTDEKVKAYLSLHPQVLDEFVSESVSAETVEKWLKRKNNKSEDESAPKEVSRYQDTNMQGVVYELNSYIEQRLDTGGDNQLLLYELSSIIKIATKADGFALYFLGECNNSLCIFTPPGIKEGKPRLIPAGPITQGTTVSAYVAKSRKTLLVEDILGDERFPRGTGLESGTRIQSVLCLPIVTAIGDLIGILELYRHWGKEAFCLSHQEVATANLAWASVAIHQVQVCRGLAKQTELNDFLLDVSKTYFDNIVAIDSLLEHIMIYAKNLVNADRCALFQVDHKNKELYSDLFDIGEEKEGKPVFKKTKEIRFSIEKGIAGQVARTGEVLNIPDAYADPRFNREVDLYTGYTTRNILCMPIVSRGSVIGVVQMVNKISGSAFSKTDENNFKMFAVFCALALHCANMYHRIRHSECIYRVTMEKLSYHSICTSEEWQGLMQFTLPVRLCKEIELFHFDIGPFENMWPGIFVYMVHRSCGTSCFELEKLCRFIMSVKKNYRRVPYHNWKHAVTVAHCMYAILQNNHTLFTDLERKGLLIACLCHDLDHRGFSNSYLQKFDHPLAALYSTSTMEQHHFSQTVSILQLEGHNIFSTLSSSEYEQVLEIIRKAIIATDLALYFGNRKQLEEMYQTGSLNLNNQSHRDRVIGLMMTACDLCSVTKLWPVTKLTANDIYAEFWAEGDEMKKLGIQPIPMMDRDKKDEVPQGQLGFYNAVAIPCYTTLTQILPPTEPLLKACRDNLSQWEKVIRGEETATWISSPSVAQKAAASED
T3 sequence (O00408 whole entry): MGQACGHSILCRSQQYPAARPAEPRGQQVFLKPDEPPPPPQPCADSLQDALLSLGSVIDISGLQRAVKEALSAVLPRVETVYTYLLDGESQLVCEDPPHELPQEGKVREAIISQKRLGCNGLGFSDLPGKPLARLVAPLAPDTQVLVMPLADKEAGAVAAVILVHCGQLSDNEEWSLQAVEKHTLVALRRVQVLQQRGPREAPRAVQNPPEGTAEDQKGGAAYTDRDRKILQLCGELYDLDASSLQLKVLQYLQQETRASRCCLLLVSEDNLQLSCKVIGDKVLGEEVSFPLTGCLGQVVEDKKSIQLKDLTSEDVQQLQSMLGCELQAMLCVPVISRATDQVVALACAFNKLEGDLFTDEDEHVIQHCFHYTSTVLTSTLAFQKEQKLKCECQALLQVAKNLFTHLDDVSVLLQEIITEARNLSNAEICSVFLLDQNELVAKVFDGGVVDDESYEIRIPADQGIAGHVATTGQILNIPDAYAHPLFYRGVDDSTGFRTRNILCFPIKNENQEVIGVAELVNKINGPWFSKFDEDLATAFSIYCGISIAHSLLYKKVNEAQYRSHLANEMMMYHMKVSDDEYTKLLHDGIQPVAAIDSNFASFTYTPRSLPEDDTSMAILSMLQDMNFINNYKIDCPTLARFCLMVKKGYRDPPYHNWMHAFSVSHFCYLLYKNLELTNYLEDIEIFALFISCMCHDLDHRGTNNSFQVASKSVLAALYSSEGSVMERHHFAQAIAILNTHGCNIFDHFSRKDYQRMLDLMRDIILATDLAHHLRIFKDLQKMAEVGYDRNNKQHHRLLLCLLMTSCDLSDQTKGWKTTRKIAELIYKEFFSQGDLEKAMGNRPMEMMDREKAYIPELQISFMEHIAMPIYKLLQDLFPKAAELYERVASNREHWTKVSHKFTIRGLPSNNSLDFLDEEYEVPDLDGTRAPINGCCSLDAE

| Compound | IC50 [1] [nM] | Emax [1] [%] | Emax [2, 4] [%] | IC50 [2, 5] [nM] | Emax [2, 6] [%] | IC50 [2, 7] [nM] | Emax [3] [%] | IC50 [3, 8] [nM] | IC50 [3, 9] [nM] | Emax ([3]; human recombinant PDE2A) [%] | IC50 ([3]; hPDE2A pIC50) [nM] | IC50 [3, 10] [nM] | hPDE10A2 or rPDE10A2 Emax ([2]; human clone by default (no (r) mark)) |
| --- | --- | --- | --- | --- | --- | --- | --- | --- | --- | --- | --- | --- | --- |
| C[C@@H]1CCN(C(=O)c2ncccc2C(F)(F)F)C[C@H]1c1cc(C(F)F)nc2ncnn12 [Compound 253] | > 10000 | 17 | 39 | > 10000 | 39 | > 10000 | 95 | 457 | – | – | – | – | – |
| C[C@@H]1CCN(C(=O)c2cccc(C(C)(C)C#N)c2)C[C@H]1c1cc(C(F)F)nc2ncnn12 [Compound 175] | 6030 | 71 | 98 | 141 | – | – | 100 | 4.9 | 4.9 | 100 | – | – | – |
| C[C@@H]1CCN(C(=O)c2cc(C#N)ccn2)C[C@H]1c1cc(C(F)F)nc2ncnn12 [Compound 163] | > 10000 | 12 | 74 | 3240 | – | – | 98 | 89.1 | 89.1 | 98 | – | – | – |
| Cc1cc([C@H]2CN(C(=O)c3cc(C)c(F)c(C)c3)CC[C@@H]2C)n2ncnc2n1 [Compound 217] | > 10000 | 37 | 72 | 4790 | 72 | 4790 | 99 | – | – | – | 562 | 562 | – |
| C[C@@H]1CCN(C(=O)c2cn(C)cn2)C[C@H]1c1cc(C(F)F)nc2ncnn12 [Compound 58] | > 10000 | 18 | 69 | 4470 | – | – | 99 | 24.5 | 24.5 | 99 | – | – | – |
| O=C(c1ccnc2ccccc12)N1[C@H]2CC[C@H](c3cc(C(F)F)nc4ncnn34)[C@@H]1CC2 [Compound 317] | > 10000 | 15 | – | – | – | > 10000 | 99 | – | – | – | – | – | 34 |
| Cc1cc([C@@H]2CN(C(=O)c3ccnc(Cl)c3)CC[C@H]2C)n2ncnc2n1 [Compound 15] | 8130 | 54 | 97 | 72.4 | – | – | 100 | – | – | – | 3.24 | 3.24 | – |
| O=C(c1cccc2cccnc12)N1[C@H]2CC[C@H](c3cc(C(F)F)nc4ncnn34)[C@@H]1CC2 [Compound 316] | > 10000 | 5 | – | – | 14 | > 10000 | 94 | 257 | – | – | – | – | – |
| C[C@@H]1CCN(C(=O)c2ccc(C(C)(C)C)o2)C[C@H]1c1cc(C(F)F)nc2ncnn12 [Compound 136] | > 10000 | 51 | 97 | 288 | – | – | 101 | 3.39 | 3.39 | 101 | – | – | – |
| Cc1cnc(C(=O)N2[C@H]3CC[C@H](c4cc(C(F)F)nc5ncnn45)[C@@H]2CC3)cc1C [Compound 365] | > 10000 | 24 | – | – | 33 | > 10000 | 99 | 63.1 | – | – | – | – | – |
| C[C@@H]1CCN(C(=O)c2ccc(Cl)s2)C[C@H]1c1cc(C(F)F)nc2ncnn12 [Compound 180] | 5130 | 66 | 97 | 174 | – | – | 100 | 5.01 | 5.01 | 100 | – | – | – |
| C[C@@H]1CCN(C(=O)c2nccnc2N)C[C@H]1c1cc(C(F)F)nc2ncnn12 [Compound 261] | > 10000 | 19 | 45 | > 10000 | 45 | > 10000 | 95 | 363 | – | – | – | – | – |
